{
  "source": "patent US12569543B2",
  "about": "“Semaglutide in cardiovascular conditions” (Novo Nordisk A/S, priority 2016, dated 2026)",
  "test_system": "human subjects with type 2 diabetes",
  "experiment": "Long-term randomised, double-blind, placebo-controlled cardiovascular outcomes trial with semaglutide",
  "key": {"[1]": {"settings": "Table 4, coronary and peripheral, semaglutide arms"}, "[2]": {"settings": "Table 4, individual component of MACE, semaglutide arms"}, "[3]": {"settings": "Table 4, individual component of MACE, semaglutide vs placebo, Cox model"}, "[4]": {"settings": "Table 4, MACE incl. revascularisation, hospitalisation for UAP and heart failure, semaglutide arms"}, "[5]": {"settings": "Table 4, semaglutide vs placebo, Cox model"}, "[6]": {"settings": "Table 5, under first MACE (CV death, non-fatal MI, non-fatal stroke), semaglutide arms"}, "[7]": {"settings": "Table 5, MACE = cardiovascular death, non-fatal MI, non-fatal stroke, all subjects, semaglutide arms"}, "[8]": {"settings": "Table 5 subgroup BMI >30 kg/m^2, semaglutide arms"}, "[9]": {"settings": "Table 5 subgroup BMI ≤30 kg/m^2, semaglutide arms"}, "[10]": {"settings": "Table 5 subgroup Ethnic origin: Asian, semaglutide arms"}, "[11]": {"settings": "Table 5 subgroup Ethnic origin: Black or African-American, semaglutide arms"}, "[12]": {"settings": "Table 5 subgroup Ethnic origin: Other, semaglutide arms"}, "[13]": {"settings": "Table 5 subgroup Ethnic origin: White, semaglutide arms"}, "[14]": {"settings": "Table 5 subgroup Heart failure NYHA class I or no heart failure, semaglutide arms"}, "[15]": {"settings": "Table 5 subgroup Heart failure NYHA class II or III, semaglutide arms"}, "[16]": {"settings": "Table 5 subgroup Sex: Female, semaglutide arms"}, "[17]": {"settings": "Table 5 subgroup Sex: Male, semaglutide arms"}},
  "description": "A long-term randomised, double-blind, placebo-controlled, four-armed parallel-group, multicentre, multi-national, safety and efficacy trial was carried out to evaluate cardiovascular and other long-term outcomes with semaglutide in 3,297 human subjects with type 2 diabetes.\nThe subjects were randomised to receive once weekly treatment doses of 0.5 mg semaglutide, 1.0 mg semaglutide, or volume-matched placebo, as an add-on to their standard-of-care treatment, wherein administration started with an initial dose escalation step at 0.25 mg semaglutide once weekly for 4 weeks, and for the 1.0 mg semaglutide group an additional 4 week period at 0.5 mg semaglutide once weekly, or their volume-matched placebo, as shown in Table 1. Additional glucose-lowering medications were allowed to be added to the anti-diabetic regimen to maintain target glycaemic control at the discretion of investigator.\nSemaglutide was administered in the form of an aqueous solution comprising semaglutide or placebo, both using a 3 ml disposable pen-injector. This pen-injector was identical for the semaglutide and placebo administrations. This aqueous solution contained 1.34 mg/ml semaglutide, 1.42 mg/ml disodium phosphate dihydrate, 14.0 mg/ml propylene glycol, 5.5 mg/ml phenol, at pH 7.40.\nInjections were administered in the thigh, abdomen or upper arm, at any time of day irrespective of meals. The injections were administered on the same day of the week during the trial.\nIn this trial, “clinical evidence of cardiovascular disease” was present when the subject fulfilled at least one criterion selected from the group consisting of a) to h): • a) prior myocardial infarction, • b) prior stroke or transient ischaemic attack, • c) prior coronary, carotid or peripheral arterial revascularisation, • d) >50% stenosis on angiography or imaging of coronary, carotid or lower extremity arteries, • e) history of symptomatic coronary heart disease (documented by e.g. positive exercise stress test or any cardiac imaging or unstable angina with ECG changes), • f) asymptomatic cardiac ischemia (e.g. documented by positive nuclear imaging test or exercise test or stress echo or any cardiac imaging), • g) heart failure New York Heart Association (NYHA) class and • h) chronic renal impairment (documented (prior to screening) by estimated glomerular filtration rate (eGFR)<60 mL/min/1.73 m^2 per MDRD).\nIn this trial, “subclinical evidence of cardiovascular disease” was present when the subject fulfilled at least one criterion selected from the group consisting of i) to l): • i) persistent microalbuminuria (30-299 mg/g) or proteinuria, • j) hypertension and left ventricular hypertrophy by ECG or imaging, • k) left ventricular systolic or diastolic dysfunction by imaging, and • l) ankle/brachial index<0.9.\nThe results of this trial may be presented herein as a number or fraction of subjects experiencing an event. […] The term “hazard ratio” (also referred to as “HR”) as used herein means the instantaneous risk ratio of experiencing an event when administered semaglutide compared to placebo which are the two treatments in this trial. An upper limit of the 95% confidence interval (CI) for the HR of less than 1.00 means that the estimated treatment ratio between semaglutide and placebo with respect to the event of interest is statistically significant in favour of semaglutide on a 5% significance level.",
  "data": [
    {"substance": "N^6.26-{18-[N-(17-carboxy-heptadecanoyl)-L-γ-glutamyl]-10-oxo-3,6,12,15-tetraoxa-9,18-diazaoctadecanoyl}-[8-(2-amino-2-propanoic acid),34-L-arginine]human glucagon-like peptide 1(7-37) [Semaglutide]", "values": [
      {"measurement": "Time to first non-fatal myocardial infarction (Kaplan-Meier plot)", "setting": "FIG. 1, after a certain period of chronic treatment, vs placebo", "value": "particularly good effect"},
      {"measurement": "Time to first revascularisation (Kaplan-Meier plot)", "setting": "FIG. 2, after a certain period of chronic treatment, vs placebo", "value": "particularly good effect"},
      {"measurement": "Revascularisation, N subjects with at least one event", "setting": "[1]", "value": 83},
      {"measurement": "Revascularisation, percentage of subjects with at least one event", "setting": "[1]", "value": 5.0, "unit": "%"},
      {"measurement": "Revascularisation, hazard ratio", "setting": "Table 4, coronary and peripheral, semaglutide vs placebo, Cox model", "value": 0.65},
      {"measurement": "Cardiovascular death, N subjects with event", "setting": "[2]", "value": 44},
      {"measurement": "Cardiovascular death, percentage of subjects with event", "setting": "[2]", "value": 2.7, "unit": "%"},
      {"measurement": "Myocardial infarction, non-fatal, N subjects with at least one event", "setting": "[2]", "value": 47},
      {"measurement": "Myocardial infarction, non-fatal, percentage of subjects with at least one event", "setting": "[2]", "value": 2.9, "unit": "%"},
      {"measurement": "Stroke, non-fatal, N subjects with at least one event", "setting": "[2]", "value": 27},
      {"measurement": "Stroke, non-fatal, percentage of subjects with at least one event", "setting": "[2]", "value": 1.6, "unit": "%"},
      {"measurement": "Cardiovascular death, hazard ratio", "setting": "[3]", "value": 0.98},
      {"measurement": "Myocardial infarction, non-fatal, hazard ratio", "setting": "[3]", "value": 0.74},
      {"measurement": "Stroke, non-fatal, hazard ratio", "setting": "[3]", "value": 0.61},
      {"measurement": "Time to first MACE, hazard ratio", "setting": "Table 4, MACE = CV death, non-fatal MI, non-fatal stroke, revascularisation, hospitalisation for UAP or heart failure, semaglutide vs placebo, Cox model", "value": 0.74},
      {"measurement": "First MACE, N subjects experiencing at least one event", "setting": "[4]", "value": 199},
      {"measurement": "First MACE, percentage of subjects experiencing at least one event", "setting": "[4]", "value": 12.1, "unit": "%"},
      {"measurement": "Coronary revascularisation, N subjects with at least one event", "setting": "Table 4, semaglutide arms", "value": 70},
      {"measurement": "Coronary revascularisation, percentage of subjects with at least one event", "setting": "Table 4, semaglutide arms", "value": 4.2, "unit": "%"},
      {"measurement": "Hospitalisation for UAP, N subjects with at least one event", "setting": "Table 4, semaglutide arms", "value": 22},
      {"measurement": "Hospitalisation for UAP, percentage of subjects with at least one event", "setting": "Table 4, semaglutide arms", "value": 1.3, "unit": "%"},
      {"measurement": "Hospitalisation for heart failure, N subjects with at least one event", "setting": "Table 4, semaglutide arms", "value": 59},
      {"measurement": "Hospitalisation for heart failure, percentage of subjects with at least one event", "setting": "Table 4, semaglutide arms", "value": 3.6, "unit": "%"},
      {"measurement": "Peripheral revascularisation, N subjects with at least one event", "setting": "Table 4, semaglutide arms", "value": 16},
      {"measurement": "Peripheral revascularisation, percentage of subjects with at least one event", "setting": "Table 4, semaglutide arms", "value": 1.0, "unit": "%"},
      {"measurement": "Coronary revascularisation, hazard ratio", "setting": "[5]", "value": 0.68},
      {"measurement": "Hospitalisation for UAP, hazard ratio", "setting": "[5]", "value": 0.82},
      {"measurement": "Hospitalisation for heart failure, hazard ratio", "setting": "[5]", "value": 1.11},
      {"measurement": "Peripheral revascularisation, hazard ratio", "setting": "[5]", "value": 0.63},
      {"measurement": "Cardiovascular death, N subjects", "setting": "[6]", "value": 37},
      {"measurement": "Cardiovascular death, percentage of subjects", "setting": "[6]", "value": 2.2, "unit": "%"},
      {"measurement": "Myocardial infarction, non-fatal, N subjects", "setting": "[6]", "value": 46},
      {"measurement": "Myocardial infarction, non-fatal, percentage of subjects", "setting": "[6]", "value": 2.8, "unit": "%"},
      {"measurement": "Stroke, non-fatal, N subjects", "setting": "[6]", "value": 25},
      {"measurement": "Stroke, non-fatal, percentage of subjects", "setting": "[6]", "value": 1.5, "unit": "%"},
      {"measurement": "First MACE, N subjects experiencing at least one event", "setting": "[7]", "value": 108},
      {"measurement": "First MACE, percentage of subjects experiencing at least one event", "setting": "[7]", "value": 6.6, "unit": "%"},
      {"measurement": "Time to first MACE, hazard ratio", "setting": "Table 5, MACE = cardiovascular death, non-fatal MI, non-fatal stroke, all subjects, semaglutide vs placebo, Cox model", "value": 0.74},
      {"measurement": "Time to first MACE, hazard ratio", "setting": "Table 5 subgroup BMI >30 kg/m^2, MACE = CV death, non-fatal MI, non-fatal stroke, vs placebo", "value": 0.84},
      {"measurement": "First MACE, N subjects with at least one event", "setting": "[8]", "value": 69},
      {"measurement": "First MACE, percentage of subjects with at least one event", "setting": "[8]", "value": 6.6, "unit": "%"},
      {"measurement": "Time to first MACE, hazard ratio", "setting": "Table 5 subgroup BMI ≤30 kg/m^2, MACE = CV death, non-fatal MI, non-fatal stroke, vs placebo", "value": 0.58},
      {"measurement": "First MACE, N subjects with at least one event", "setting": "[9]", "value": 39},
      {"measurement": "First MACE, percentage of subjects with at least one event", "setting": "[9]", "value": 6.6, "unit": "%"},
      {"measurement": "Time to first MACE, hazard ratio", "setting": "Table 5 subgroup Ethnic origin: Asian, MACE = CV death, non-fatal MI, non-fatal stroke, vs placebo", "value": 0.58},
      {"measurement": "First MACE, N subjects with at least one event", "setting": "[10]", "value": 2},
      {"measurement": "First MACE, percentage of subjects with at least one event", "setting": "[10]", "value": 5.7, "unit": "%"},
      {"measurement": "Time to first MACE, hazard ratio", "setting": "Table 5 subgroup Ethnic origin: Black or African-American, MACE = CV death, non-fatal MI, non-fatal stroke, vs placebo", "value": 0.72},
      {"measurement": "First MACE, N subjects with at least one event", "setting": "[11]", "value": 5},
      {"measurement": "First MACE, percentage of subjects with at least one event", "setting": "[11]", "value": 4.6, "unit": "%"},
      {"measurement": "Time to first MACE, hazard ratio", "setting": "Table 5 subgroup Ethnic origin: Other, MACE = CV death, non-fatal MI, non-fatal stroke, vs placebo", "value": 0.46},
      {"measurement": "First MACE, N subjects with at least one event", "setting": "[12]", "value": 93},
      {"measurement": "First MACE, percentage of subjects with at least one event", "setting": "[12]", "value": 6.7, "unit": "%"},
      {"measurement": "Time to first MACE, hazard ratio", "setting": "Table 5 subgroup Ethnic origin: White, MACE = CV death, non-fatal MI, non-fatal stroke, vs placebo", "value": 0.76},
      {"measurement": "First MACE, N subjects with at least one event", "setting": "[13]", "value": 8},
      {"measurement": "First MACE, percentage of subjects with at least one event", "setting": "[13]", "value": 6.6, "unit": "%"},
      {"measurement": "Time to first MACE, hazard ratio", "setting": "Table 5 subgroup Heart failure NYHA class I or no heart failure, MACE = CV death, non-fatal MI, non-fatal stroke, vs placebo", "value": 0.64},
      {"measurement": "First MACE, N subjects with at least one event", "setting": "[14]", "value": 73},
      {"measurement": "First MACE, percentage of subjects with at least one event", "setting": "[14]", "value": 5.4, "unit": "%"},
      {"measurement": "Time to first MACE, hazard ratio", "setting": "Table 5 subgroup Heart failure NYHA class II or III, MACE = CV death, non-fatal MI, non-fatal stroke, vs placebo", "value": 1.03},
      {"measurement": "First MACE, N subjects with at least one event", "setting": "[15]", "value": 35},
      {"measurement": "First MACE, percentage of subjects with at least one event", "setting": "[15]", "value": 12.3, "unit": "%"},
      {"measurement": "Time to first MACE, hazard ratio", "setting": "Table 5 subgroup Sex: Female, MACE = CV death, non-fatal MI, non-fatal stroke, vs placebo", "value": 0.84},
      {"measurement": "First MACE, N subjects with at least one event", "setting": "[16]", "value": 35},
      {"measurement": "First MACE, percentage of subjects with at least one event", "setting": "[16]", "value": 5.5, "unit": "%"},
      {"measurement": "Time to first MACE, hazard ratio", "setting": "Table 5 subgroup Sex: Male, MACE = CV death, non-fatal MI, non-fatal stroke, vs placebo", "value": 0.68},
      {"measurement": "First MACE, N subjects with at least one event", "setting": "[17]", "value": 73},
      {"measurement": "First MACE, percentage of subjects with at least one event", "setting": "[17]", "value": 7.2, "unit": "%"},
      {"measurement": "First MACE, N subjects with at least one event", "setting": "Table 6, 0.5 mg semaglutide once weekly arm", "value": 59},
      {"measurement": "Time to first MACE, hazard ratio", "setting": "Table 6, 0.5 mg semaglutide once weekly arm vs its placebo, MACE = CV death, non-fatal MI, non-fatal stroke", "value": 0.77},
      {"measurement": "First MACE, N subjects with at least one event", "setting": "Table 6, 1.0 mg semaglutide once weekly arm", "value": 49},
      {"measurement": "Time to first MACE, hazard ratio", "setting": "Table 6, 1.0 mg semaglutide once weekly arm vs its placebo, MACE = CV death, non-fatal MI, non-fatal stroke", "value": 0.71},
      {"measurement": "Effect on reducing cardiovascular disease", "setting": "overall conclusion of the trial, more pronounced in some subgroups", "value": "surprisingly good effect on reducing cardiovascular disease"}
    ]}
  ]
}
